Consider 4 molecules from the supplement of paper PMC4862054.

Structures are written as SMILES.

Assay [1] has as its system BT-474. To be noted: 72 h. A digest of the protocol:
(§1)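 Breast cancer cell lines (20 µl suspension) were seeded into 384-well plates holding compound at 5 concentrations in 10-fold steps over a compound-specific 10,000-fold range, then incubated 72 h. Cell death was read first by CellTox Green fluorescence (485/520 nm), then viability by CellTiter-Glo luminescence after 10 min at room temperature. Each plate was normalised to 0.1 % DMSO and a positive kill control. EC50 was fitted from the dose-response curves and censored at the top concentration.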

Assay [2] has as its system HDQ-P1. As to conditions: 72 h. A digest of the protocol: as §1
Assay [3] concerns MDA-MB-468. To be noted: 72 h. A digest of the protocol:
as §1

The subject of a further assay is DU-4475. Kind of assay: normalised viability (% of control), CellTiter-Blue; higher = more viable cells (about 100 = DMSO control). To be noted: 10 nM; incubation time: 72 h. How it is done:
(§2)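 DSRT, CellTiter-Blue viability, 72 h incubation. Signal is normalised to DMSO and benzethonium chloride controls. Value is the normalised response at dose 3.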
(The colour change of resazurin is a common sign of viable cells or microbes.)

In assay [4] the test system is BT-474. The description is as above. To be noted: 100 nM; incubation time: 72 h. As to the method: as §2
A further assay relates to CAL-148. Described as above. To be noted: 10 nM; incubation time: 72 h. As to the method:
as §2

The subject of another assay is CAL-85-1. The description is as above. As to conditions: 10 nM; incubation time: 72 h. How it is done:
as §2

The subject of a further assay is MFM-223. The description is as above. As to conditions: 100 nM; incubation time: 72 h. How it is done: as §2
The subject of assay [5] is SK-BR-3. The description is as above. To be noted: 100 nM; incubation time: 72 h. As to the method: as §2
The test system of the next assay is HCC1937. The description is as above. As to conditions: 100 nM; incubation time: 72 h. How it is done: as §2
Assay [6] relates to BT-549. Described as above. To be noted: 100 nM; incubation time: 72 h. How it is done:
as §2

The subject of assay [7] is HDQ-P1. Described as above. To be noted: 10 nM; incubation time: 72 h. How it is done:
as §2

The test system of another assay is Hs578T. Described as above. As to conditions: 100 nM; incubation time: 72 h. How it is done:
as §2

A further assay has as its system HCC1143. The assay is described as above. As to conditions: 100 nM; incubation time: 72 h. How it is done:
as §2

A further assay concerns MDA-MB-231. Described as above. As to conditions: 100 nM; incubation time: 72 h. How it is done: as §2
The test system of a further assay is HCC1599. The assay is described as above. As to conditions: 100 nM; incubation time: 72 h. As to the method:
as §2

Assay [8] relates to MDA-MB-453. The assay is described as above. As to conditions: 10 nM; incubation time: 72 h. As to the method:
as §2

Assay [9] relates to CAL-51. The assay is described as above. As to conditions: 10 nM; incubation time: 72 h. As to the method:
as §2

Assay [10] has as its system CAL-120. Described as above. As to conditions: 100 nM; incubation time: 72 h. How it is done:
as §2

The subject of assay [11] is MDA-MB-468. The description is as above. To be noted: 100 nM; incubation time: 72 h. How it is done:
as §2

The subject of a further assay is MDA-MB-436. Described as above. As to conditions: 100 nM; incubation time: 72 h. As to the method:
as §2

In assay [12] the test system is SK-BR-3. Kind of assay: normalised viability (% of control), CellTiter-Blue; higher = more viable cells (about 100 = DMSO control). As to conditions: incubation time: 72 h. A digest of the protocol: (§3)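 Compound dissolved in 5 µl medium was pre-loaded into 384-well plates, and breast cancer cell lines in 20 µl suspension were seeded on top and incubated 72 h. After adding 2.5 µl CellTiter-Blue reagent for 2 h at 37 °C, fluorescence was read at 560/590 nm. Plates were normalised to vehicle (100) and a positive kill control (0), with Z'-factor quality control. Each value is normalised viability at a single listed concentration from the series.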

Assay [13] relates to BT-549. The assay is described as above. To be noted: incubation time: 72 h. A digest of the protocol: as §3
Assay [14] concerns MDA-MB-453. Described as above. To be noted: incubation time: 72 h. A digest of the protocol: as §3
Assay [15] concerns CAL-51. The description is as above. To be noted: incubation time: 72 h. A digest of the protocol:
as §3

Assay [16] concerns CAL-120. The assay is described as above. As to conditions: incubation time: 72 h. A digest of the protocol: as §3
Assay [17] has as its system MDA-MB-468. Described as above. As to conditions: incubation time: 72 h. A digest of the protocol: as §3

For `Nc1ncn([C@@H]2O[C@H](CO)[C@@H](O)[C@H]2O)c(=O)n1` [Azacitidine], the “EC50, CellTiter-Glo” value turned out to be 2290 nM in the assay on BT-474 [1], 2470 nM with HDQ-P1 [2] and 574 nM with MDA-MB-468 [3]. Moreover, the normalised viability is 118% in the assay with DU-4475; 107% in the assay on BT-474 [4]; 82.7% in the assay on CAL-148; 95.2% in the assay on CAL-85-1; 94.7% in the assay with MFM-223; 89.3% in the assay with SK-BR-3 [5]. Also, the normalised viability turned out to be 98.3% in the assay on HCC1937; 106% in the assay with BT-549 [6]; 108% with HDQ-P1 [7]; 91.7% in the assay with Hs578T; 91.5% in the assay on HCC1143; 84.5% in the assay with MDA-MB-231. Moreover, the normalised viability in the assay on HCC1599 was found to be 97%; in the assay on MDA-MB-453 [8], 101%; in the assay with CAL-51 [9], 108%; in the assay on CAL-120 [10], 90.9%; in the assay with MDA-MB-468 [11] it was 103%; with MDA-MB-436, 89.3%. For the same molecule, the normalised viability in the assay with SK-BR-3 [12] (10 nM) amounted to 92%; in the assay with SK-BR-3 [12] (1000 nM), 106%; in the assay on SK-BR-3 [12] (10000 nM), 66.6%; in the assay on BT-549 [13] (10 nM), 115%; in the assay with BT-549 [13] (1000 nM), 95.4%; with BT-549 [13] (10000 nM), 48.7%. Besides, the normalised viability is 104% with MDA-MB-453 [14] (3 nM); 109% in the assay with MDA-MB-453 [14] (30 nM); 102% with MDA-MB-453 [14] (100 nM); 102% in the assay on CAL-51 [15] (3 nM); 104% in the assay with CAL-51 [15] (30 nM); 104% in the assay with CAL-51 [15] (100 nM). Moreover, the normalised viability in the assay on CAL-120 [16] (10 nM) amounted to 80.9%; in the assay on CAL-120 [16] (1000 nM) it was 88.9%; with CAL-120 [16] (10000 nM) it was 60.9%; with MDA-MB-468 [17] (10 nM), 110%; with MDA-MB-468 [17] (1000 nM), 40.7%; with MDA-MB-468 [17] (10000 nM) it was 20.9%.
As for `CC(=O)N(O)CCCCCNC(=O)CCC(=O)N(O)CCCCCNC(=O)CCC(=O)N(O)CCCCCN` [Deferoxamine], the “EC50, CellTiter-Glo” value in the assay with HDQ-P1 [2] was determined as 1850 nM; in the assay with MDA-MB-468 [3], 815 nM.
On to `C[C@]1(O)C[C@@H](c2nc(-c3ccc4ccc(-c5ccccc5)nc4c3)c3c(N)nccn32)C1` [Linsitinib], for which the figures for the “EC50, CellTiter-Glo” value in the assay with BT-474 [1], with HDQ-P1 [2] and in the assay with MDA-MB-468 [3] were 1090 nM, 1010 nM and 4140 nM, respectively.
As for `CC1(C)CNc2cc(NC(=O)c3cccnc3NCc3ccncc3)ccc21` [Motesanib], the “EC50, CellTiter-Glo” value in the assay on MDA-MB-468 [3] was over 10000 nM. The normalised viability in the assay on DU-4475 came to 90.4%; in the assay with BT-474 [4], 87.7%; in the assay on CAL-148 it was 82.5%; in the assay with CAL-85-1, 91.4%; in the assay on MFM-223, 80.2%; with SK-BR-3 [5], 79.3%. Further, the normalised viability was determined as 90.5% in the assay on HCC1937; 88.1% with BT-549 [6]; 88.1% in the assay on HDQ-P1 [7]; 90.8% in the assay on Hs578T; 79.1% in the assay with HCC1143; 79.2% in the assay on MDA-MB-231. In addition, the normalised viability in the assay on HCC1599 was 101%; in the assay on MDA-MB-453 [8], 82.7%; in the assay on CAL-51 [9] it was 111%; in the assay with CAL-120 [10] it was 71.9%; in the assay with MDA-MB-468 [11], 113%; in the assay on MDA-MB-436 it was 79.7%. Further, the normalised viability with SK-BR-3 [12] (10 nM) came to 83.3%; with SK-BR-3 [12] (1000 nM), 88.9%; in the assay with SK-BR-3 [12] (10000 nM) it was 78.9%; with BT-549 [13] (10 nM), 79.1%; in the assay on BT-549 [13] (1000 nM) it was 93.5%; in the assay with BT-549 [13] (10000 nM), 79.2%. Also, the normalised viability in the assay with MDA-MB-453 [14] (3 nM) came to 96.1%; in the assay with MDA-MB-453 [14] (30 nM) it was 71.3%; in the assay on MDA-MB-453 [14] (100 nM) it was 69.6%; in the assay on CAL-51 [15] (3 nM), 109%; with CAL-51 [15] (30 nM), 110%; in the assay on CAL-51 [15] (100 nM), 97.2%. The normalised viability turned out to be 74.4% in the assay with CAL-120 [16] (10 nM); 78.3% in the assay with CAL-120 [16] (1000 nM); 82.4% with CAL-120 [16] (10000 nM); 88.3% with MDA-MB-468 [17] (10 nM); 85.3% in the assay on MDA-MB-468 [17] (1000 nM); 88.2% in the assay on MDA-MB-468 [17] (10000 nM).
